In the supplement of paper PMC11451515:

Test system: SEM cells
Assay: cell viability relative to DMSO control; higher = less cytotoxic
Settings: 48 h
Outline: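 Before seeding, each leukemia line was adapted for at least four passages in each medium. NOMO1 or SEM cells (500 cells/well) and P12-Ichikawa cells (1000 cells/well) went into 1536-well plates at 5 μl, then received library compounds in DMSO by pin dosing across 11 threefold concentrations, 47 μM to 0.79 nM. Readout was CellTiter-Glo One luminescence after 48 h at 37°C, and viability is given as a per-plate percentage of DMSO wells, with cell-free wells as background.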

[1] = HPLM + 10% dialyzed FBS, 0.000781 µM
[2] = HPLM + 10% dialyzed FBS, 0.00234 µM
[3] = HPLM + 10% dialyzed FBS, 0.00702 µM
[4] = HPLM + 10% dialyzed FBS, 0.0211 µM
[5] = HPLM + 10% dialyzed FBS, 0.0632 µM
[6] = HPLM + 10% dialyzed FBS, 0.19 µM
[7] = HPLM + 10% dialyzed FBS, 0.569 µM
[8] = HPLM + 10% dialyzed FBS, 1.71 µM
[9] = HPLM + 10% dialyzed FBS, 5.12 µM
[10] = HPLM + 10% dialyzed FBS, 15.4 µM
[11] = HPLM + 10% dialyzed FBS, 46.1 µM
[12] = RPMI 5 mM glucose + 10% FBS, 0.000781 µM
[13] = RPMI 5 mM glucose + 10% FBS, 0.00234 µM
[14] = RPMI 5 mM glucose + 10% FBS, 0.00702 µM
[15] = RPMI 5 mM glucose + 10% FBS, 0.0211 µM
[16] = RPMI 5 mM glucose + 10% FBS, 0.0632 µM
[17] = RPMI 5 mM glucose + 10% FBS, 0.19 µM
[18] = RPMI 5 mM glucose + 10% FBS, 0.569 µM
[19] = RPMI 5 mM glucose + 10% FBS, 1.71 µM
[20] = RPMI 5 mM glucose + 10% FBS, 5.12 µM
[21] = RPMI 5 mM glucose + 10% FBS, 15.4 µM
[22] = RPMI 5 mM glucose + 10% FBS, 46.1 µM
[23] = RPMI 5 mM glucose + 10% dialyzed FBS, 0.000781 µM
[24] = RPMI 5 mM glucose + 10% dialyzed FBS, 0.00234 µM
[25] = RPMI 5 mM glucose + 10% dialyzed FBS, 0.00702 µM
[26] = RPMI 5 mM glucose + 10% dialyzed FBS, 0.0211 µM
[27] = RPMI 5 mM glucose + 10% dialyzed FBS, 0.0632 µM
[28] = RPMI 5 mM glucose + 10% dialyzed FBS, 0.19 µM
[29] = RPMI 5 mM glucose + 10% dialyzed FBS, 0.569 µM
[30] = RPMI 5 mM glucose + 10% dialyzed FBS, 1.71 µM
[31] = RPMI 5 mM glucose + 10% dialyzed FBS, 5.12 µM
[32] = RPMI 5 mM glucose + 10% dialyzed FBS, 15.4 µM
[33] = RPMI 5 mM glucose + 10% dialyzed FBS, 46.1 µM

Row | Structure (SMILES) | cell viability [1] [%] | cell viability [2] [%] | cell viability [3] [%] | cell viability [4] [%] | cell viability [5] [%] | cell viability [6] [%] | cell viability [7] [%] | cell viability [8] [%] | cell viability [9] [%] | cell viability [10] [%] | cell viability [11] [%] | cell viability [12] [%] | cell viability [13] [%] | cell viability [14] [%] | cell viability [15] [%] | cell viability [16] [%] | cell viability [17] [%] | cell viability [18] [%] | cell viability [19] [%] | cell viability [20] [%] | cell viability [21] [%] | cell viability [22] [%] | cell viability [23] [%] | cell viability [24] [%] | cell viability [25] [%] | cell viability [26] [%] | cell viability [27] [%] | cell viability [28] [%] | cell viability [29] [%] | cell viability [30] [%] | cell viability [31] [%] | cell viability [32] [%] | cell viability [33] [%]
1 | O=C(O)c1cc(/N=N/c2ccc([S+](=O)([O-])Nc3ccccn3)cc2)ccc1O | 84.9 | 108 | 95.3 | 76.3 | 101 | 103 | 122 | 106 | 110 | 90.8 | 98.2 | 98.8 | 101 | 108 | 71.9 | 103 | 114 | 112 | 97.2 | 89.3 | 116 | 75.1 | 91.7 | 102 | 96.2 | 76.8 | 117 | 91.5 | 97.5 | 106 | 95.5 | 89.4 | 82.1
2 | COc1c(C)c2c(c(O)c1C/C=C(\C)CCC(=O)O)C(=O)OC2 | 92.9 | 104 | 104 | 111 | 113 | 100 | 120 | 111 | 97 | 61.2 | 33.3 | 102 | 105 | 114 | 109 | 113 | 102 | 118 | 98.2 | 77 | 48.1 | 29.9 | 102 | 104 | 115 | 81.9 | 114 | 108 | 100 | 116 | 108 | 64.8 | 45.6
3 | CC(C)c1cc(C(C)C)c(CC(=O)N[S+](=O)([O-])Oc2c(C(C)C)cccc2C(C)C)c(C(C)C)c1 | 93.7 | 108 | 107 | 96.2 | 100 | 106 | 108 | 102 | 99.7 | 99 | 95.1 | 114 | 119 | 114 | 121 | 114 | 121 | 116 | 115 | 130 | 122 | 115 | 90.5 | 104 | 103 | 104 | 108 | 104 | 103 | 97.3 | 96.8 | 88.6 | 93.3
4 | COC1=CC=C(C(=C1)OC(C)C)C/2=N/[C@@H]([C@@H](N2C(=O)N3CCNC(=O)C3)C4=CC=C(Cl)C=C4)C5=CC=C(Cl)C=C5 | 92.4 | 110 | 112 | 106 | 87.1 | 56.5 | 42.5 | 33.1 | 29.2 | 16.1 | 5.42 | 100 | 125 | 99.9 | 105 | 60.6 | 55.6 | 46.5 | 34.5 | 23.6 | 6.03 | 1.48 | 101 | 106 | 101 | 83.5 | 79.8 | 45.1 | 41.1 | 27.8 | 20.5 | 12.3 | 3.12
5 | COc1ccc2c(c1)[C@]13CCCCC1C(C2)N(C)CC3 (stereo not given in full) | 102 | 116 | 113 | 106 | 116 | 112 | 103 | 100 | 128 | 111 | 129 | 106 | 105 | 115 | 115 | 111 | 126 | 110 | 113 | 126 | 126 | 123 | 101 | 103 | 106 | 114 | 108 | 114 | 118 | 109 | 117 | 108 | 114
6 | COC1=C(OCCCN2CCOCC2)C=CC\3=C1/N=C(/NC(=O)C4=CN=C(N)N=C4)N5CC/N=C35 | 95.2 | 94.2 | 102 | 99.2 | 97.4 | 77.2 | 69.4 | 65.8 | 57.3 | 47.6 | 37.4 | 128 | 119 | 110 | 106 | 104 | 97.6 | 82.4 | 88.1 | 72 | 63 | 42.8 | 89.3 | 101 | 93.2 | 95.5 | 86.3 | 83 | 66.5 | 59.3 | 56.6 | 51.8 | 35.1
7 | COc1cc(C(=O)N2CC[C@@H](O)[C@@H](N)C2)cc2nc(-c3cc4ccccc4n3CC3CC3)n(C)c12 | 97.9 | 118 | 116 | 124 | 119 | 117 | 124 | 51.1 | 28.6 | 27.4 | 20.1 | – | – | – | – | – | – | – | – | – | – | – | – | – | – | – | – | – | – | – | – | – | –
8 | Cc1ccnc2c1NC(=O)c1cccnc1N2C1CC1 | 63.6 | 84.2 | 97.9 | 101 | 95.8 | 97.2 | 106 | 107 | 91.8 | 102 | 111 | 83.7 | 85.2 | 84.6 | 85.4 | 96.7 | 96.8 | 90.9 | 101 | 99.4 | 105 | 99.6 | 90.8 | 86.6 | 94.5 | 90.1 | 90.1 | 89.7 | 93 | 90.4 | 105 | 101 | 93.6
9 | NC(=O)c1ccc(N(C(N)=O)c2c(F)cccc2F)nc1-c1ccc(F)cc1F | 85.2 | 81.2 | 88.2 | 79.5 | 89.5 | 94 | 106 | 99.7 | 88.5 | 51.7 | 77.5 | 116 | 88.8 | 80.1 | 97.4 | 119 | 95 | 89 | 104 | 102 | 52.3 | 94.9 | 87.6 | 86.7 | 89.4 | 94.7 | 93.2 | 94.9 | 88.3 | 100 | 92.1 | 41.1 | 66.8
10 | CC12CC3CC(C)(C1)CC(N)(C3)C2 | 89.4 | 107 | 93.2 | 105 | 96.7 | 99.4 | 127 | 126 | 103 | 114 | 105 | 106 | 94.4 | 105 | 109 | 110 | 106 | 122 | 114 | 133 | 123 | 131 | 84.3 | 86.8 | 88.6 | 116 | 102 | 104 | 110 | 103 | 101 | 95.5 | 104
11 | C[C@]12CC[C@H]3[C@@H](CCC4=CC(=O)CC[C@@H]43)[C@@H]1CC[C@@H]2OC(=O)CCc1ccccc1 | 83.2 | 22.9 | 101 | 93.8 | 100 | 98.5 | 94.3 | 99.6 | 85.9 | 91.4 | 93.6 | 116 | 24.5 | 123 | 111 | 116 | 115 | 108 | 122 | 110 | 120 | 114 | 99.4 | 26.5 | 107 | 122 | 112 | 109 | 104 | 123 | 100 | 125 | 113
12 | CCCCCCCCCCCCCC(=O)N[C@H](CO)[C@H](O)c1ccc([N+](=O)[O-])cc1 | 97.4 | 81.4 | 89.5 | 95.4 | 98.9 | 65.1 | 79.7 | 39.8 | 13.8 | 3.54 | 2.38 | 99.6 | 76.1 | 89.1 | 103 | 95.5 | 55.4 | 66.5 | 25.1 | 9.49 | 3.9 | 2.41 | 87.3 | 81.9 | 85.2 | 94.3 | 93.1 | 55.2 | 83 | 36 | 8.3 | 4.49 | 2.85
13 | COc1cc2c(cc1OC)CN(CCc1ccc(NC(=O)c3cc(OC)c(OC)cc3NC(=O)c3cnc4ccccc4c3)cc1)CC2 | 116 | 115 | 116 | 123 | 111 | 110 | 123 | 120 | 101 | 69 | 79.6 | – | – | – | – | – | – | – | – | – | – | – | 115 | 123 | 114 | 108 | 122 | 123 | 121 | 132 | 103 | 59.9 | 47.9
14 | O=C(CCCN1CCN(c2ccc(F)cc2)CC1)NC1c2ccccc2CSc2ccccc21 (stereo not given) | 111 | 135 | 116 | 126 | 131 | 121 | 33.8 | 126 | 113 | 118 | 89.6 | 128 | 112 | 115 | 115 | 120 | 118 | 51 | 103 | 101 | 92 | 49.9 | 112 | 122 | 102 | 104 | 123 | 112 | 40.7 | 113 | 95.3 | 81.2 | 43.6
15 | CN(C)CC(C)(C)CNc1nn2c(-c3ccccc3)nnc2cc1C1CCC1 | 79.6 | 98.8 | 100 | 98 | 92.1 | 114 | 5.79 | 101 | 92.3 | 82.7 | 62.4 | 92.9 | 116 | 104 | 127 | 110 | 125 | 6.41 | 106 | 103 | 81.1 | 73.1 | 68.1 | 123 | 101 | 113 | 105 | 110 | 5.36 | 102 | 106 | 71.8 | 77.8
16 | C=CC(=O)Nc1cc2c(Nc3ccc(F)c(Cl)c3)ncnc2cc1OCCCN1CCOCC1 | 112 | 107 | 112 | 128 | 110 | 124 | 114 | 90.3 | 55 | 39.2 | 26.7 | 87.7 | 81.5 | 85.3 | 84 | 73.1 | 78.6 | 80.2 | 68.6 | 41.7 | 24.2 | 42.9 | 119 | 114 | 95.4 | 127 | 112 | 110 | 108 | 89 | 56.3 | 29.1 | 58.8
